Experimental data reported in patent US20110217355A1, “CONTACT LENS BASED BIOACTIVE AGENT DELIVERY SYSTEM” (priority 2007, published 2011).
Where two headings read alike, the source gives them in different places.

Columns and labels:
[1] = Physical properties of the surfactants obtained from literature; format: physicochemical; conditions: carbons in hydrophobic tail / total carbons
Experimental: Table 3 lists the surfactants utilized in this study and their relevant physical properties obtained from literature. The value of ‘fh’ is also listed, this is defined as the fraction of hydrophobic chain length of the surfactant and is calculated by taking the ratio of number of carbons in the hydrophobic tail of the surfactant to the total number of carbons present in the surfactant.

[2] = Surfactant release experiments from hydrogels in DI water (surface tension); format: physicochemical; conditions: for Slope (surfactant release vs rescaled time): p-HEMA gels, slope = √(2DSC*×100); for DSC*: surfactant diffusivity times critical aggregation concentration in p-HEMA gel, from fitting surfactant release data
Experimental: The rates of surfactant release were measured in 3.5 ml of DI water with water replacement after each measurement to maintain perfect sink conditions. The surfactant concentration in the release medium was determined by measuring surface tension (σ), which was then related to the concentration through a σ(C) calibration curve. The surface tension was measured by using a Wilhelmy plate (sand blasted platinum plate) attached to a Scaime France Microbalance which was further connected to a Stathan Universal transducer (SC001).
The rate of surfactant release from surfactant-laden contact lenses needs to be measured because an excessive release could lead to toxicity. Additionally, the rate of surfactant release impacts drug release. As described in the previous section, the surfactant concentration in the release medium was determined by measuring the surface tension of the solution, which is related to the bulk concentration (Data not shown).
where DS is the surfactant diffusivity, C* is the critical aggregation concentration (CAC), i.e., the concentration beyond which the surfactant aggregates inside the gel, t is time, Cp is the concentration of the surfactant present as aggregates inside the hydrogel, and h is the half-thickness of the hydrogel. The above equation is valid for diffusion of any solute that is loaded in the gel above saturation limit and so a fraction of the solute precipitates into aggregates. This equation is the equivalent of the Higuchi equation that is commonly utilized to model drug release from gels [Higuchi T. Rate of release of medicaments from ointment bases containing drugs in suspension. Journal of Pharmaceutical Sciences 1961; 50(10):874-875].
To validate the model and to understand the mechanism of surfactant transport, surfactant release studies were conducted from gels of different surfactant loadings (approximately 2%, 4% and 8% w/w in drug gel) and different gel thicknesses (˜100 and 200 μm in dry state). FIG. 8a-c show the surfactant release from 100 μm thick and 200 μm thick gels with three different surfactant concentration explored for 200 μm thick gels. The data is re-plotted in FIG. 9a-c with time axis rescaled to
The fact that association of Brij 700 with the gel matrix is strongly dependant on the gel thickness may be due to large number of ethylene oxide (EO) units in the surfactant.
The slope indicated in FIG. 9(a-c) represents the value of √{square root over (2DSC*×100)}.
As mentioned above, the critical aggregation concentration for Brij 700 in p-HEMA gels is more than 1%, and so the release data from gels loaded with 1% (w/w) can be fitted to the following equation to obtain the surfactant diffusivity [Ritger P L, Peppas N A. A simple equation for description of solute release 1. Fickian and non-Fickian release from mom-swellable devices in the form of slabs, spheres, cylinders and discs. Journal of Controlled Release 1987; 5:23-36].
Here DS is the diffusivity of the surfactant and h is the half-thickness of the gel. The diffusivity of Brij 700 from these hydrogels was determined to be 7.85×10^−17 m^2/s and subsequently the value of C* was evaluated from the already determined parameter ‘DsC*’ (Table 4) to be 2.4±1.1 mM, which is equivalent to 1.12±0.51% surfactant in a dry gel. This value is in reasonable agreement with the hypothesis C* for Brij 700 is approximately 2%, which was based on the overlapping percentage release data for 1% and 2% Brij 700 loaded gels.

[3] = calculated earlier (Kapoor and Chauhan 2008), reported for comparison; cited from earlier work
cornea = conditions: exposure to 0.05% solution for about 5 hours; cited from earlier work

Row | fh (fraction of hydrophobic chain length of the surfactant) [1] | Slope (surfactant release vs rescaled time) [2] | DSC* [2] | average release of surfactant ([2]; 100 micron thick gel with 8% loading) | amount of surfactant released ([2]; 100 micron thick gel with 8% loading, 10 days) | surfactant released from gel ([2]; 100 micron thick gel with 8% loading, period of 10 days) | surfactant released into the post lens tear film ([2]; at the most half of the average release, lens on an eye) | C* as surfactant in a dry gel ([2]; equivalent of the mM value) | C* (critical aggregation concentration) ([2]; in p-HEMA gel, evaluated from DsC* and DS) | diffusivity of the surfactant from hydrogels (DS) ([2]; p-HEMA gels loaded with 1% (w/w) surfactant) | Substance | DSC* [3] | Slope (surfactant release vs rescaled time) [3] | corneal hydration (cornea)
1 | 0.47 | 0.4802 ± 0.010 | 11.52 (μm)^2M/s × 10^6 |  |  |  |  |  |  |  | POE (10) oleyl ether [Brij 97] |  |  | 
2 | 0.31 |  |  |  |  |  |  |  |  |  | POE (20) oleyl ether [Brij 98] | 60.80 (μm)^2M/s × 10^6 | 1.1000 ± 0.013 | 
3 | 0.31 | 0.1846 ± 0.050 | 1.70 (μm)^2M/s × 10^6 | about 30 μg/day | around 300 μg | about 10% | ≤ 15 µg/day |  |  |  | POE (20) stearyl ether [Brij 78] |  |  | does not lead to any significant increase in corneal hydration
4 | 0.08 | 0.0613 ± 0.013 | 0.19 (μm)^2M/s × 10^6 |  |  |  |  | 1.12±0.51% | 2.4 ± 1.1 mM | 7.85×10^−17 m^2/s | POE (100) stearyl ether [Brij 700] |  |  | 
